Experimental data taken from patent publication US20230303564A1, “PYRIMIDINE RING COMPOUND” (MEDSHINE DISCOVERY INC., priority 2020, published 2023).
pIC50: −log10 of the molar value.

What was measured:
Format in all cases: biochemical
[1] = biological target: CDK6/CyclinD1 (Homo sapiens (Human), UniProt Q00534); test: CDK6/CyclinD1 enzyme activity test (LANCE Ultra TR-FRET); conditions: 250 μM ATP, 25° C. 120 minutes, read-out: CDK6/Cyclin D1 IC50
Method: CDK6/CyclinD1 Enzyme Reaction System
(§1) Preparation of Kinase Buffer:
(§2) The composition of the buffer: 50 mM of hydroxyethylpiperazine ethanesulfonic acid solution at pH 7.5, 1 mM of ethylenediaminetetraacetic acid, 10 mM of magnesium chloride, 0.01% Brij-35, and 2 mM of dithiothreitol.
(§3) Enzymes, substrate LANCE Ultra ULight™-4E-BP-1(Thr37146) Peptide, ATP, and inhibitors were diluted by kinase buffer.
(§4) The compounds to be tested were diluted 5-fold with a multi-channel pipette to the eighth concentration, that is, from 40 μM to 0.512 nM, the concentration of DMSO was 4%, and a double-hole experiment was set up. […] The reaction system was reacted at 25° C. for 120 minutes. After the reaction, 5 μL mixture of EDTA and 2× LANCE™ Detection Buffer (1:1) were added to each well, the reaction was carried out at 25° C. for 5 minutes, after the reaction was completed, 5 μL of LANCE Ultra Eu-anti-P-4E-BP1(Thr37MS) (4 nM) was added to each well, the reaction was carried out at 25° C. for 60 minutes, the reaction signal was detected by Nivo instrument according to the principle of time-resolved fluorescence resonance energy transfer.
(§5) The equation (Sample−Min)/(Max−Min)*100% was used to convert the raw data into inhibition rate, and the value of IC50 can be obtained by curve fitting with four parameters (obtained by log (inhibitor) vs. response-Variable slope mode in GraphPad Prism). The enzymatic inhibitory activity of the compounds of the present disclosure on CDK1/CyclinB1, CDK2/CyclinA2, CDK2/CyclinE1, CDK4/CyclinD1, CDK6/CyclinD1, CDK7/CyclinH/MAT1, CDK9/CyclinT1 was provided in Table 1.

[2] = biological target: CDK9/CyclinT1 (Homo sapiens (Human), UniProt P50750); test: CDK9/CyclinT1 enzyme activity test (ADP-Glo); conditions: 100 μM ATP, 25° C. 120 minutes, read-out: CDK 9/Cyclin T1 IC50
CDK9/CyclinT1, sequence (P50750 whole entry): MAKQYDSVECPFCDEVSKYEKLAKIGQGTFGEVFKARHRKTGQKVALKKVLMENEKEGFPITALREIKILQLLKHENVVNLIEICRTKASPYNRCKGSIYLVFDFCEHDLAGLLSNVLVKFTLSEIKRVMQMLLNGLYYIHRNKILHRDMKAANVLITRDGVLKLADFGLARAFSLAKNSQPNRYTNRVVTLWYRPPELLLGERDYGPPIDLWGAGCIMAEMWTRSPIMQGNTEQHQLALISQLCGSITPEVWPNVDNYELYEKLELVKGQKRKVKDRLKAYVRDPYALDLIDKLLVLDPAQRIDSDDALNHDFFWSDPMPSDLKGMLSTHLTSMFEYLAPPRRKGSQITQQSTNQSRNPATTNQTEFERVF
CDK9/CyclinT1, sequence (O60563 whole entry partner): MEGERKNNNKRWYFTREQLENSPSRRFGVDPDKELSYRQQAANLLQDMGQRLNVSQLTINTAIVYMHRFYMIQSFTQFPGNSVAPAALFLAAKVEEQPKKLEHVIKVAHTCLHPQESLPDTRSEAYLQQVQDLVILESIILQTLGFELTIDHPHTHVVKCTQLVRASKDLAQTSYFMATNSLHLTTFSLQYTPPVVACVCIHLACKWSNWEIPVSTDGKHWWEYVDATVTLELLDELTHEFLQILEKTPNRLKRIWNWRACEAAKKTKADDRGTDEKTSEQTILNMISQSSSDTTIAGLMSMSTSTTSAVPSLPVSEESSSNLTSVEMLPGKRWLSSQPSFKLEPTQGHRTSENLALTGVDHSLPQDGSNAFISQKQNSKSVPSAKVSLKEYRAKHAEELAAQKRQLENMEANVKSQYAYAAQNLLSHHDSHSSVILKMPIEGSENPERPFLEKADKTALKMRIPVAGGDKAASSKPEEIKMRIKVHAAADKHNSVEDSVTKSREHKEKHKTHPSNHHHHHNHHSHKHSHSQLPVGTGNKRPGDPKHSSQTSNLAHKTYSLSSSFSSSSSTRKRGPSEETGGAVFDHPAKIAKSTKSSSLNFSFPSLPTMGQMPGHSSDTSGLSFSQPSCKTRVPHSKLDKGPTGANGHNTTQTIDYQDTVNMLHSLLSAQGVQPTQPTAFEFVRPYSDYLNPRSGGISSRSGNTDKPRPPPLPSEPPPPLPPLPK
Method: CDK9/CyclinT1 Enzyme Reaction System
(§6) Enzymes, substrates, ATP, and inhibitors were diluted by kinase buffer in the kit. The compounds to be tested were diluted 5-fold with a multi-channel pipette to the eighth concentration, that is, from 50 μM to 0.65 nM, the concentration of DMSO was 5%, and a double-hole experiment was set up. 1 μL of each concentration gradient of inhibitors, 2 μL of CDK9/CyclinT1 enzyme (4 ng), 2 μL mixture of substrate and ATP (100 μM ATP, 0.2 μg/μL substrate) were added to the microplates, and the final concentration gradient of the compound was 10 μM to 0.13 nM. The reaction system was reacted at 25° C. for 120 minutes. After the reaction, 5 μL of ADP-Glo reagent was added to each well, the reaction was carried out at 25° C. for 40 minutes, after the reaction was completed, 10 μL of kinase detection reagent was added to each well, the reaction was carried out at 25° C. for 30 minutes, the multiple label analyzer was used to read the chemiluminescence with an integration time of 0.5 seconds.
as §5

[3] = biological target: CDK4/CyclinD1 (Homo sapiens (Human), UniProt P11802); test: CDK4/CyclinD1 enzyme activity test (LANCE Ultra TR-FRET); conditions: 350 μM ATP, 25° C. 120 minutes, read-out: CDK4/Cyclin D1 IC50
CDK4/CyclinD1, sequence (P11802 whole entry): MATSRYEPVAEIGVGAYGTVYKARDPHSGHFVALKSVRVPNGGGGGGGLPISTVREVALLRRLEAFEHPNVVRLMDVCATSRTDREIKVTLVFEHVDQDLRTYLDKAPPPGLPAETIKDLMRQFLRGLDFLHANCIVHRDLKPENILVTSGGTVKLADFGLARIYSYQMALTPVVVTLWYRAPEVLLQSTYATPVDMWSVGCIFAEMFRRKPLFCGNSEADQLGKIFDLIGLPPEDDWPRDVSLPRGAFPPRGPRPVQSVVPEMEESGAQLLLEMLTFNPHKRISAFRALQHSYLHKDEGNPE
CDK4/CyclinD1, sequence (P24385 whole entry partner): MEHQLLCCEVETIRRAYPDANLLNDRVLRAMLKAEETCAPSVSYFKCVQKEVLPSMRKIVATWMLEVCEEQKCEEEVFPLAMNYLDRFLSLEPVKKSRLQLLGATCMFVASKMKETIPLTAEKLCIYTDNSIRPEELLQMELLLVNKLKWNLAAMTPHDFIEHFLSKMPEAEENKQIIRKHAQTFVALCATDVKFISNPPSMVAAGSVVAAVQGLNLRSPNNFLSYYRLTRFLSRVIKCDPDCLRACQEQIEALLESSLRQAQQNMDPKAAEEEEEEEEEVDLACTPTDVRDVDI
Method: CDK4/CyclinD1 Enzyme Reaction System
as §1, §2, §3, §4, §5

[4] = biological target: CDK1/CyclinB1 (Homo sapiens (Human), UniProt P06493); test: CDK1/CyclinB1 enzyme activity test (ADP-Glo); conditions: 25 μM ATP, 25° C. 120 minutes, read-out: CDK1/Cyclin B IC50
CDK1/CyclinB1, sequence (P06493 whole entry): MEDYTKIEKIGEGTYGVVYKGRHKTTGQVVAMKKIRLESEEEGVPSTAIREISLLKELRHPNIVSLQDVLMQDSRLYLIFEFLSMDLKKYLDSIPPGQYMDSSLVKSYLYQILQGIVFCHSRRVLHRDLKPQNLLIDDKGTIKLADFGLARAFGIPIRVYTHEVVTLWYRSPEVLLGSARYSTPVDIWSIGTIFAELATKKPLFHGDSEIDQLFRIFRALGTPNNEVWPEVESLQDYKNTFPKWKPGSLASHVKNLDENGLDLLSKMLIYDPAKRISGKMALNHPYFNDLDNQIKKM
CDK1/CyclinB1, sequence (P14635 whole entry partner): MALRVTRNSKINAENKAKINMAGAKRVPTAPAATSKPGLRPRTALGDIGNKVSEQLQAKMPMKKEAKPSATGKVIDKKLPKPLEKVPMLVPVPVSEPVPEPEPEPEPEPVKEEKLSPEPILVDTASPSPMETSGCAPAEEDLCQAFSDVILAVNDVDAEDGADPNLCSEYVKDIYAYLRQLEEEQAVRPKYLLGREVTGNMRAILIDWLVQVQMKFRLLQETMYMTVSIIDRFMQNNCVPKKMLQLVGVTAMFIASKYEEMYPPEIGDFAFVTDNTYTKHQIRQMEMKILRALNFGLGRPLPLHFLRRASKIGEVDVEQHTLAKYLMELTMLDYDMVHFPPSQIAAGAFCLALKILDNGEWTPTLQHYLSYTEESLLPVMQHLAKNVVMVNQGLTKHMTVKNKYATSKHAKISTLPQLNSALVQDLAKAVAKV
Method: CDK1/CyclinB1 Enzyme Reaction System
as §6, with “of CDK1/CyclinB1” for “of CDK9/CyclinT1”, “enzyme (12.5” for “enzyme (4”, “ATP (25” for “ATP (100”, “μM adenosine triphosphate,” for “μM ATP,”
as §5

[5] = biological target: CDK2/CyclinA2 (Homo sapiens (Human), UniProt P24941); test: CDK2/CyclinA2 enzyme activity test (ADP-Glo); conditions: 50 μM ATP, 25° C. 60 minutes, read-out: CDK2/Cyclin A2 IC50
Method: CDK2/CyclinA2 Enzyme Reaction System
as §6, with “CDK2/CyclinA2” for “CDK9/CyclinT1”, “(1.6” for “(4”, “(50” for “(100”, “0.1” for “0.2”, “60” for “120”, “seconds” for “seconds.”
as §5

[6] = biological target: CDK2/CyclinE1 (Homo sapiens (Human), UniProt P24941); test: CDK2/CyclinE1 enzyme activity test (ADP-Glo); conditions: 150 μM ATP, 25° C. 60 minutes, read-out: CDK2/Cyclin E1 IC50
Method: CDK2/CyclinE1 Enzyme Reaction System
as §6, with “CDK2/CyclinE1” for “CDK9/CyclinT1”, “(2” for “(4”, “(150” for “(100”, “0.1” for “0.2”, “60” for “120”
as §5

[7] = biological target: CDK7/CyclinH/MAT1 (Homo sapiens (Human), UniProt P50613); test: CDK7/CyclinH/MAT1 enzyme activity test (ADP-Glo); conditions: 10 μM ATP, 25° C. 120 minutes, read-out: CDK7/Cyclin H IC50
CDK7/CyclinH/MAT1, sequence (P50613 whole entry): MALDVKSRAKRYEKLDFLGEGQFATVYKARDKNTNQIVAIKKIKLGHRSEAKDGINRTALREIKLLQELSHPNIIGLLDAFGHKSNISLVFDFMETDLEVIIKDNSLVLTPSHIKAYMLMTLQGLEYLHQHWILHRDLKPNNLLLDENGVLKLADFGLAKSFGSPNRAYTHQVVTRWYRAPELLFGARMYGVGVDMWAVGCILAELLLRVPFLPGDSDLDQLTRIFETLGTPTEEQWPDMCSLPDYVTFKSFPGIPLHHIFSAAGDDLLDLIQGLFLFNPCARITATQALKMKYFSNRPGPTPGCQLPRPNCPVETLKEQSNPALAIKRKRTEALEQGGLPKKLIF
CDK7/CyclinH/MAT1, sequence (P51946 whole entry partner): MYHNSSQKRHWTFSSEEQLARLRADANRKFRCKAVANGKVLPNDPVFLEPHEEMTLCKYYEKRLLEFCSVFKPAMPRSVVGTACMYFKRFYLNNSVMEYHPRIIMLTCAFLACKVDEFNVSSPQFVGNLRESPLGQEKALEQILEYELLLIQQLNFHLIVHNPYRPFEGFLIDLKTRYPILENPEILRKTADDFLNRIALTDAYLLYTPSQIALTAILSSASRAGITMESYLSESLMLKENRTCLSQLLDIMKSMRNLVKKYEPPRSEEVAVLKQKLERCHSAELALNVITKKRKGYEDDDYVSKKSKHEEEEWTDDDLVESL
CDK7/CyclinH/MAT1, sequence (P51948 whole entry partner): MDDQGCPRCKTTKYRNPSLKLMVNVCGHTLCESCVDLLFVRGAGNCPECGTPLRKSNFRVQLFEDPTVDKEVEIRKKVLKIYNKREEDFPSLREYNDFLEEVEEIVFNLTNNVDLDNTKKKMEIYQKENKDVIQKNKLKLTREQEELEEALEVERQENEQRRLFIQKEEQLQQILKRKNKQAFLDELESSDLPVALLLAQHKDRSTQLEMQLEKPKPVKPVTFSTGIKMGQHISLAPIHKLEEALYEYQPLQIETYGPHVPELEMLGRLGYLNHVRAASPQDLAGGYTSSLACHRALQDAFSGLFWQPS
Method: CDK7/CyclinH/MAT1 Enzyme Reaction System
Enzymes, substrates (MBP), ATP, and inhibitors were diluted by kinase buffer in the kit. The compounds to be tested were diluted 5-fold with a multi-channel pipette to the eighth concentration, that is, from 50 μM to 0.65 nM, the concentration of DMSO was 5%, and a double-hole experiment was set up. 1 μL of each concentration gradient of inhibitors, 2 μL of CDK7/CyclinH/MAT1 enzyme (20 ng), 2 μL mixture of substrate and ATP (10 μM ATP, 0.1 μg/μL substrate) were added to the microplates, and the final concentration gradient of the compound was 10 μM to 0.13 nM. The reaction system was reacted at 25° C. for 120 minutes. After the reaction, 5 μL of ADP-Glo reagent was added to each well, the reaction was carried out at 25° C. for 40 minutes, after the reaction was completed, 10 μL of kinase detection reagent was added to each well, the reaction was carried out at 25° C. for 30 minutes, the multiple label analyzer was used to read the chemiluminescence with an integration time of 0.5 seconds.

CDK6/CyclinD1, sequence (Q00534 whole entry): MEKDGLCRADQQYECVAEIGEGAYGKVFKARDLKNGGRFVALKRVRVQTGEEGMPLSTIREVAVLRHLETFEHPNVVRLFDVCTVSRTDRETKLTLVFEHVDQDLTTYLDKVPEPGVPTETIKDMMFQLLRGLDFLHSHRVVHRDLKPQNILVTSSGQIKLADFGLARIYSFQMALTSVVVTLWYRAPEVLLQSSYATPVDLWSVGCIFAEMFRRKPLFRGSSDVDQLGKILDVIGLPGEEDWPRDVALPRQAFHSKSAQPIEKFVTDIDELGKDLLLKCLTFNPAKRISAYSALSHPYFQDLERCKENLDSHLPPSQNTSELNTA
CDK6/CyclinD1, sequence (P24385 whole entry partner): as the sequence (P24385 whole entry partner) above

pIC50 [1]: 9.09
pIC50 [2]: 7.05
pIC50 [3]: 8.91
pIC50 [4]: 8.17
pIC50 [5]: 9.14
pIC50 [6]: 8.41
pIC50 [7]: 7.39
SMILES: Cc1cc2cnc(NC3CCN(S(C)(=O)=O)CC3)nc2c(N[C@@H]2CCC[C@@]2(C)O)n1 [Compound 8]
